The target in one data set is T1, BLV envelope (Bovine leukemia virus, UniProt P51519).
T1 construct: A fragment encompassing the entire BLV envelope open reading frame; expressed in transfected cells; host or cells: HeLa (co-transfected with pRSV-Rev)
Briefly: Syncytium interference assay, BLV envelope-expressing HeLa effector cells. Format: cell-based. As to conditions: for Inhibition of BLV Env-induced membrane fusion: result in words.

Data set [1] in a line: Relative peptide solubility by laser nephelometry. Format: physicochemical. As to conditions: filtered PBS with 1.5 % DMSO, maximum solubility in aqueous solution, two-fold serial dilution from DMSO stock, 200 μl, 1 hr at room temperature, laser nephelometry (forward scattered light, NEPHELOstar), duplicate wells, in solution if reading up to 3-fold the DMSO control. Here is the method: A two-fold serial dilution of peptide in DMSO was performed, and added in duplicate to 96-well microplates. Filtered PBS was added to give a total volume of 200 μl and a final DMSO concentration of 1.5 % in all wells. The plates were incubated at room temperature for 1 hr and the relative solubility of peptides was established by measuring forward scattered light using a NEPHELOstar laser-based microplate nephelometer (BMG LABTECH). Wells containing PBS and 1.5 % DMSO only were used as blanks. Data analysis was carried out using ActivityBase, and peptides giving readings up to and including 3-fold higher than the average reading for the DMSO control were considered to be in solution at the concentrations specified.

Where [2] appears, read: concentration not given (Figures 3B, 4A, 4C).

Each structure is given as a SMILES string. ≈ marks a conversion by molar mass, not a printed value. Where a SMILES comes first, the peptide text is derived from it.

A word on the inhibition: it is the relative decrease from the control value, in per cent. In general, solubility (kinetic) refers to solubility judged after dilution from a stock solution rather than from solid.

T1 sequence (P51519 302-515): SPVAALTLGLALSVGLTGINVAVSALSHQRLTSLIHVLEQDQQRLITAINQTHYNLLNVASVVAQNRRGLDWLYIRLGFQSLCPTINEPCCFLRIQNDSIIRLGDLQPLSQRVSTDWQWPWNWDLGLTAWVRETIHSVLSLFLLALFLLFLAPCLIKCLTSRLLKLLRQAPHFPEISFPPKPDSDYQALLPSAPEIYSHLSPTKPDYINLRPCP
Procedure for BLV envelope: Briefly, HeLa cells for use as effector cells were transfected with the envelope expression vector pHTE-1 or with equal amounts of pCMV-BLVenv-RRE and pRSV-Rev using the Genejuice™ transfection reagent (Novagen) in accordance with the manufacturer's instructions. 24 h later, 3 × 10^5 effector cells were added to 7 × 10^5 untransfected HeLa target cells in six-well dishes (Nunc). Where appropriate, the co-culture was incubated in the presence of peptides at the concentrations specified. To assess the ability of the peptides to inhibit fusion induced by virally expressed BLV envelope, 2 × 10^5 BLV-infected FLK cells were used as effectors and added to 8 × 10^5 uninfected HeLa cells. After incubation at 37°C for 16 h, cells were washed twice with PBS and fixed in PBS + 3% paraformaldehyde. Assays were performed in triplicate and the number of syncytia (defined as multinucleated cells with 4 or more nuclei) from 10 low-power fields (LPF) per replicate was scored by light microscopy; some assays were stained using Giemsa. A syncytium formation value of 100% is defined as the number of syncytia formed in the absence of peptide but in the presence of 1.5% DMSO.

On to `CC[C@H](C)[C@H](NC(=O)[C@H](CCCNC(=N)N)NC(=O)[C@H](CC(C)C)NC(C)=O)C(=O)N[C@@H](CCC(N)=O)C(=O)N[C@@H](CC(N)=O)C(=O)N[C@@H](CC(=O)O)C(=O)N[C@@H](CO)C(=O)N[C@H](C(=O)N[C@H](C(=O)N[C@@H](CCCNC(=N)N)C(=O)N[C@@H](CC(C)C)C(=O)NCC(=O)N[C@@H](CC(=O)O)C(=O)N[C@@H](CC(C)C)C(=O)N[C@@H](CCC(N)=O)C(=O)N1CCC[C@H]1C(=O)N[C@@H](CC(C)C)C(=O)N[C@@H](CO)C(=O)N[C@@H](CCC(N)=O)C(=O)N[C@@H](CCCNC(=N)N)C(=O)N[C@H](C(=O)N[C@@H](CO)C(=O)N[C@H](C(=O)N[C@@H](CC(=O)O)C(=O)N[C@@H](Cc1c[nH]c2ccccc12)C(=O)N[C@@H](CCC(N)=O)C(N)=O)[C@@H](C)O)C(C)C)[C@@H](C)CC)[C@@H](C)CC` [P^BLV-ΔCCF] (Ac-LRIQNDSIIRLGDLQPLSQRVSTDWQ-NH2), for which the inhibition at 30 µM at BLV envelope (HeLa, read-out: Inhibition of syncytium formation) is 40%. Also, on BLV envelope (peptide concentrations below 11 μM, where the peptide is soluble), the “Inhibition of BLV Env-induced membrane fusion” value is listed as “fails to inhibit membrane fusion”. Also, the solubility (kinetic) at 1 h in data set [1] was 11.2 µM (≈ 34.8 µg/mL).
Regarding `CC[C@H](C)[C@H](NC(=O)[C@H](CC(C)C)NC(=O)[C@H](CO)NC(=O)[C@H](Cc1c[nH]cn1)NC(=O)[C@@H](NC(=O)[C@H](CC(C)C)NC(=O)[C@H](CC(C)C)NC(=O)[C@H](CO)NC(=O)[C@@H](NC(=O)[C@H](Cc1ccc(O)cc1)NC(=O)[C@H](CC(N)=O)NC(=O)[C@H](CC(N)=O)NC(=O)[C@@H](NC(=O)[C@H](CCC(=O)O)NC(=O)[C@H](CCCNC(=N)N)NC(=O)[C@H](CC(=O)O)NC(=O)[C@H](Cc1c[nH]c2ccccc12)NC(=O)[C@H](CCC(=O)O)NC(=O)[C@H](CCSC)NC(=O)[C@H](Cc1c[nH]c2ccccc12)NC(=O)CNC(C)=O)[C@@H](C)CC)[C@@H](C)O)[C@@H](C)CC)C(=O)N[C@@H](CCC(=O)O)C(=O)N[C@@H](CCC(=O)O)C(=O)N[C@@H](CO)C(=O)N[C@@H](CCC(N)=O)C(=O)N[C@@H](CC(N)=O)C(=O)N[C@@H](CCC(N)=O)C(=O)N[C@@H](CCC(N)=O)C(=O)N[C@@H](CCC(=O)O)C(=O)N[C@@H](CCCCN)C(=O)N[C@@H](CC(N)=O)C(=O)N[C@@H](CCC(=O)O)C(=O)N[C@@H](CCC(N)=O)C(=O)N[C@@H](CCC(=O)O)C(=O)N[C@@H](CC(C)C)C(=O)N[C@@H](CC(C)C)C(N)=O` [Peptide C34, reference compound] (Ac-GWMEWDREINNYTSLLIHSLIEESQNQQEKNEQELL-NH2), on BLV envelope (setting [2]), the “Inhibition of BLV Env-induced membrane fusion” value is on record as “did not interfere”. This compound displayed a kinetic solubility at 1 h in data set [1] of over 90 µM.
Turning to `CC[C@H](C)[C@H](NC(=O)[C@H](CO)NC(C)=O)C(=O)N[C@H](C(=O)N[C@@H](CCCNC(=N)N)C(=O)N[C@@H](CC(C)C)C(=O)NCC(=O)N[C@@H](CC(=O)O)C(=O)N[C@@H](CC(C)C)C(=O)N[C@@H](CCC(N)=O)C(=O)N1CCC[C@H]1C(=O)N[C@@H](CC(C)C)C(=O)N[C@@H](CO)C(=O)N[C@@H](CCC(N)=O)C(=O)N[C@@H](CCCNC(=N)N)C(=O)N[C@H](C(=O)N[C@@H](CO)C(=O)N[C@H](C(=O)N[C@@H](CC(=O)O)C(=O)N[C@@H](Cc1c[nH]c2ccccc12)C(=O)N[C@@H](CCC(N)=O)C(N)=O)[C@@H](C)O)C(C)C)[C@@H](C)CC` [P^BLV-ΔN] (Ac-SIIRLGDLQPLSQRVSTDWQ-NH2), on BLV envelope (setting [2]), the “Inhibition of BLV Env-induced membrane fusion” value was “lacked detectable inhibitory activity”. The kinetic solubility at 1 h in data set [1] is over 90 µM.

Values taken from publication PMC2533354, “Highly specific inhibition of leukaemia virus membrane fusion by interaction of peptide antagonists with a conserved region of the coiled coil of envelope” (Retrovirology, 2008).
